Read-outs that look alike come from different tables or passages of the source.
Legend:
[1] = system: FCR3 strain, a drug sensitive strain of Plasmodium falciparum; assay: In vitro antimalarial assay (p-LDH, Malstat), FCR3 strain; type: cell-based; conditions: read-out: Antimalarial activity (IC50 value), Strain FCR3
From the text: (§1) For the evaluation of the antimalarial activity of the compound of the present invention, K1 strain, a drug resistant strain of Plasmodium falciparum, and FCR3 strain, a drug sensitive strain thereof, which were generous gift from Professor Kiyoshi Kita of the Graduate School of Medicine and Faculty of Medicine, the University of Tokyo, were used to measure the in vitro antimalarial activity of the compound against those Plasmodium species according to the method established by Otoguro et al. (Otoguro, K., Kohana, A., Manabe, C., Ishiyama, A., Ui, H., Shiomi, K., Yamada, H. & Omura, S.: Potent antimalarial activity of polyether antibiotic, X-206. J. Antibiot., 54: 658-663, (2001)).
(§2) The parasites were grown based on a slightly modified method from the original method reported by Trager and Jensen (Trager, W. and Jensen, J.: Human malaria parasites in continuous culture, Science, 193: 673-677, (1976)), and those which were maintained and sub-cultured by the method were used. More specifically, in a culture dish, erythrocytes infected with the protozoa, which had been sub-cultured using a RPMI 1640 medium to which 10% human plasma had been added and fresh human erythrocytes, were diluted (hematocrit value: 2 to 5%, parasitaemia: 0.25 to 1%), and were cultured at 37° C. in a mixed gas of 3% O2-4% CO2-93% N2, and continuously cultured while changing the medium and adding fresh erythrocytes at 2- or 3-day intervals.
(§3) A drug susceptibility test was performed by modifying the method established by Desjardins et al. (Desjardins, R. E., Canfield, C. J., Haynes, D. E. and Chulay, J. D.: Quantitative assessment of antimalarial activity in vitro by a semiautomated microdilution technique. Antimicrob. Agents Chemother., 16: 710-718 (1979)). More specifically, 190 μL of a suspension of protozoa which had been precultured (hematocrit value: 2%, parasitaemia: 0.5 or 1%) and 10 μL of a solution of a test compound (5% DMSO solution) serially diluted so that the final concentration was 12.5 to 0.0001 μM were put in each well of a 96-well plate, and after mixing, the same was cultured for 72 hours in the above mixed gas.
(§4) For the measurement of the growth of protozoa, the method established by Makler (Makler, M. T., Rise, J. M., Williams, J. A., Bancroft, J. E., Piper, R. C., Gibbins, B. L. and Hinrichs, D. J.: Parasite lactate dehydrogenase as an Assay for Plasmodium falciparum drug sensitivity, Am. J. Med. Hyg., 48: 739-741 (1993)) was modified to colorimetrically determine parasite lactate dehydrogenase (p-LDH) using Malstat reagent (Flow Inc., USA).
(§5) More specifically, 72 hours after the culture, the 96-well plate was directly frozen at −20° C. for 18 hours and melted at 37° C. to hemolyze the protozoan-infected erythrocytes and destroy the protozoa to prepare a crude enzyme solution. 100 μL of Malstat reagent and 20 μL of the crude enzyme solution were added to and mixed in each well of another 96-well plate, and after reacting for 15 minutes at room temperature, 20 μL of a nitroblue tetrazolium 2 mg/mL phenazine ethosulfate 0.1 mg/mL=1:1 solution was added to the respective wells, and reaction was performed in dark conditions at room temperature for 2 hours.
(§6) The absorbance of the blue formazan product formed by the reaction was measured at a measurement wavelength of 655 nm by using a microplate reader (Labsystems, Finland) to colorimetrically determine the growth of the protozoa. The 50% growth inhibitory concentration for the protozoa of the compound (IC50 value) was determined based on the concentration-response curve of the compound.

[2] = system: K1 strain, a drug resistant strain of Plasmodium falciparum; assay: In vitro antimalarial assay (p-LDH, Malstat), K1 strain; type: cell-based; conditions: read-out: Antimalarial activity (IC50 value), Strain K1
From the text: as §1, §2, §3, §4, §5, §6

[3] = P. falciparum FCR3 (drug sensitive), 72 h culture, p-LDH readout
[4] = P. falciparum K1 (drug resistant), 72 h culture, p-LDH readout

Row | IC50 [1, 3] | IC50 [2, 4] | Compound | IC50 ([1]; FCR3, 72 h) | IC50 ([2]; K1, 72 h)
1 | 1 to 10 µM | 1 to 10 µM | Cc1ccc(Nc2nc(N)cc(Nc3ccn4ccnc4c3)n2)cn1 [Example 85, N4-(imidazo[1,2-a]pyridin-7-yl)-N2-(6-methylpyridin-3-yl) pyrimidine-2,4,6-triamine] | – | –
2 | 0.1 to 1 µM | 0.1 to 1 µM | c1cncc(Nc2nc(Nc3ccn4ccnc4c3)cc(N3CCOCC3)n2)c1 [Example 4, N4-(Imidazo[1,2-a]pyridin-7-yl)-6-morpholino-N2-(pyridin-3-yl)pyrimidine-2,4-diamine] | – | –
3 | < 0.1 µM | < 0.1 µM | CCc1cc(C)cc(Nc2nc(Nc3ccn4ccnc4c3)cc(N3CCCCC3)n2)n1 [Example 189, N2-(6-ethyl-4-methylpyridin-2-yl)-N4-(imidazo[1,2-a]pyridin-7-yl)-6-(piperidin-1-yl)pyrimidine-2,4-diamine] | – | –
4 | 0.1 to 1 µM | 0.1 to 1 µM | CCc1ccnc(Nc2nc(Nc3ccn4ccnc4c3)cc(N3CCC4(CCCC4)C3)n2)c1 [Example 208, N2-(4-ethylpyridin-2-yl)-N4-(imidazo[1,2-a]pyridin-7-yl)-6-(2-azaspiro[4.4]nonan-2-yl) pyrimidine-2,4-diamine] | – | –
5 | 0.1 to 1 µM | 0.1 to 1 µM | Cc1cc(C)nc(Nc2nc(Nc3ccn4ccnc4c3)cc(Nn3cccc3)n2)c1 [Example 200, N2-(4,6-dimethylpyridin-2-yl)-N4-(imidazo[1,2-a]pyridin-7-yl)-N6-(1H-pyrrol-1-yl)pyrimidine-2,4,6-triamine] | – | –
6 | < 0.1 µM | 0.1 to 1 µM | CCCCc1cccc(Nc2nc(Nc3ccn4ccnc4c3)cc(N3CCC(C)(C)C3)n2)n1 [Example 168, N2-(6-butylpyridin-2-yl)-6-(3,3-dimethylpyrrolidin-1-yl)-N4-(imidazo[l,2-a]pyridin-7-yl) pyrimidine-2,4-diamine] | – | –
7 | 0.1 to 1 µM | 0.1 to 1 µM | CC(C)(C)COc1ccc(Nc2nc(Nc3ccn4ccnc4c3)cc(N3CCOCC3)n2)cn1 [Example 65, N4-(imidazo[1,2-a]pyridin-7-yl)-6-morpholino-N2-(6-(neopentyloxy)pyridin-3-yl)pyrimidine-2,4-diamine] | – | –
8 | < 0.1 µM | < 0.1 µM | Cc1cc(C)nc(Nc2nc(Nc3ccn4ccnc4c3)cc(N3CC[C@@H](F)C3)n2)c1 [Example 186, (R)-N2-(4,6-dimethylpyridin-2-yl)-6-(3-fluoropyrrolidin-1-yl)-N4-(imidazo[1,2-a]pyridin-7-yl) pyrimidine-2,4-diamine] | – | –
9 | – | – | c1cc(CCN2CCCC2)nc(Nc2nc(Nc3ccn4ccnc4c3)cc(N3CCCC3)n2)c1 [Example 163, N4-(imidazo[1,2-a]pyridin-7-yl)-6-(pyrrolidin-1-yl)-N2-{6-[2-(pyrrolidin-1-yl)ethyl]pyridin-2-yl}pyrimidine-2,4-diamine triformate] | < 0.1 µM | 0.1 to 1 µM
10 | < 0.1 µM | 0.1 to 1 µM | CCCOc1ccc(Nc2nc(Nc3ccn4ccnc4c3)cc(N3CCOCC3)n2)cn1 [Example 69, N4-(imidazo[1,2-a]pyridin-7-yl)-6-morpholino-N2-(6-propoxy-pyridin-3-yl)pyrimidine-2,4-diamine] | – | –
11 | 0.1 to 1 µM | 1 to 10 µM | OCc1cccc(Nc2nc(Nc3ccn4ccnc4c3)cc(N3CCCCC3)n2)n1 [Example 192, (6-{[4-(imidazo[1,2-a]pyridin-7-ylamino)-6-(piperidin-1-yl)pyrimidin-2-yl]amino}pyridin-2-yl)methanol] | – | –
12 | < 0.1 µM | 0.1 to 1 µM | CCCc1ccnc(Nc2nc(Nc3ccn4ccnc4c3)cc(N3CCOCC3)n2)c1 [Example 74, N4-(imidazo[1,2-a]pyridin-7-yl)-6-morpholino-N2-(4-propylpyridin-2-yl)pyrimidine-2,4-diamine] | – | –
13 | < 0.1 µM | 1 to 10 µM | Cc1cc(C)nc(Nc2nc(Nc3ccn4ccnc4c3)cc(N3CCN(C)[C@@H](C)C3)n2)c1 [Example 45, (S)-6-(3,4-dimethylpiperazin-1-yl)-N2-(4,6-dimethylpyridin-2-yl)-N4-(imidazo[1,2-a]pyridin-7-yl)pyrimidine-2,4-diamine] | – | –
14 | 0.1 to 1 µM | 0.1 to 1 µM | CCCOc1cccc(Nc2nc(Nc3ccn4ccnc4c3)cc(N3CCCC3)n2)n1 [Example 151, N4-(imidazo[1,2-a]pyridin-7-yl)-N2-(6-propoxypyridin-2-yl)-6-(pyrrolidin-1-yl)pyrimidine-2,4-diamine] | – | –
15 | 0.1 to 1 µM | 1 to 10 µM | CCc1ccnc(Nc2nc(Nc3ccn4ccnc4c3)cc(N3CCN(C)[C@H](C)C3)n2)c1 [Example 104, (R)-6-(3,4-dimethylpiperazin-1-yl)-N2-(4-ethylpyridin-2yl)-N4-(imidazo[1,2-a]pyridin-7-yl)pyrimidine-2,4-diamine] | – | –
16 | 0.1 to 1 µM | 0.1 to 1 µM | CC(C)(C)c1cccc(Nc2nc(Nc3ccn4ccnc4c3)cc(N3CCCCC3)n2)n1 [Example 122, N2-(6-(tert-butyl)pyridin-2-yl)-N4-(imidazo[1,2-a]pyridin-7-yl)-6-(piperidin-1-yl)pyrimidine-2,4-diamine] | – | –
17 | 0.1 to 1 µM | 0.1 to 1 µM | Fc1ccnc(Nc2nc(Nc3ccn4ccnc4c3)cc(N3CCOCC3)n2)c1 [Example 21, N2-(4-Fluoropyridin-2-yl)-N4-(imidazo[1,2-a]pyridin-7-yl)-6-morpholinopyrimidine-2,4-diamine] | – | –
18 | 0.1 to 1 µM | 1 to 10 µM | CCCOCc1cccc(Nc2nc(Nc3ccn4ccnc4c3)cc(N3CCCC3)n2)n1 [Example 164, N4-(imidazo[1,2-a]pyridin-7-yl)-N2-[6-(propoxymethyl)pyridin-2-yl]-6-(pyrrolidin-1-yl) pyrimidine-2,4-diamine] | – | –
19 | 0.1 to 1 µM | 1 to 10 µM | CCOc1ccc(Nc2nc(Nc3ccn4ccnc4c3)cc(N3CCCCC3)n2)cn1 [Example 51, N2-(6-ethoxypyridin-3-yl)-N4-(imidazo[1,2-a]pyridin-7-yl)-6-(piperidin-1-yl)pyrimidine-2,4-diamine] | – | –
20 | 0.1 to 1 µM | 0.1 to 1 µM | Cc1cc(C)nc(Nc2nc(Nc3ccn4ccnc4c3)cc(N3CCN[C@@H](C)C3)n2)c1 [Example 31, (S)-N2-(4,6-dimethylpyridin-2-yl)-N4-(imidazo[1,2-a]pyridin-7-yl)-6-(3-methylpiperazin-1-yl)pyrimidine-2,4-diamine] | – | –
21 | 0.1 to 1 µM | 0.1 to 1 µM | Cc1cc(Cl)cc(Nc2nc(Nc3ccn4ccnc4c3)cc(N3CCCCC3)n2)n1 [Example 205, N2-(4-chloro-6-methylpyridin-2-yl)-N4-(imidazo[1,2-a]pyridin-7-yl)-6-(piperidin-1-yl) pyrimidine-2,4-diamine] | – | –
22 | < 0.1 µM | < 0.1 µM | COc1ccnc(Nc2nc(Nc3ccn4ccnc4c3)cc(N3CCOCC3)n2)c1 [Example 48, N4-(imidazo[1,2-a]pyridin-7-yl)-N2-(4-methoxypyridin-2-yl)-6-morpholinopyrimidine-2,4-diamine] | – | –

Row | Compound | IC50 [1, 3] | IC50 [2, 4] | IC50 ([1]; FCR3, 72 h) | IC50 ([2]; K1, 72 h)
23 | c1cn2ccc(Nc3cc(N4CCOCC4)nc(Nc4ccc(OC5CCC5)nc4)n3)cc2n1 [Example 80, N2-(6-cyclobutoxypyridin-3-yl)-N4-(imidazo[1,2-a]pyridin-7-yl)-6-morpholinopyrimidine-2,4-diamine] | 0.1 to 1 µM | 0.1 to 1 µM | – | –
24 | CC(C)(C)OCCOc1cccc(Nc2nc(Nc3ccn4ccnc4c3)cc(N3CCCC3)n2)n1 [Example 156, N2-{6-[2-(tert-butoxy)ethoxy]pyridin-2-yl}-N4-(imidazo[1,2-a]pyridin-7-yl)-6-(pyrrolidin-1-yl)pyrimidine-2,4-diamine] | < 0.1 µM | 0.1 to 1 µM | – | –
